This note sets out measurements from BindingDB's records for patent US11174245 (Boehringer Ingelheim International, 2021).

For this experiment, the target named is Epidermal growth factor receptor [695-1022,T790M,C797S,L858R] (Homo sapiens, UniProt P00533, C797S/L858R/T790M). In words: Biochemical EGFR Inhibition Assays ([…]). Set-up: 695-1022.
Chain of Epidermal growth factor receptor [695-1022,T790M,C797S,L858R] (P00533 695-1022 T790M/C797S/L858R): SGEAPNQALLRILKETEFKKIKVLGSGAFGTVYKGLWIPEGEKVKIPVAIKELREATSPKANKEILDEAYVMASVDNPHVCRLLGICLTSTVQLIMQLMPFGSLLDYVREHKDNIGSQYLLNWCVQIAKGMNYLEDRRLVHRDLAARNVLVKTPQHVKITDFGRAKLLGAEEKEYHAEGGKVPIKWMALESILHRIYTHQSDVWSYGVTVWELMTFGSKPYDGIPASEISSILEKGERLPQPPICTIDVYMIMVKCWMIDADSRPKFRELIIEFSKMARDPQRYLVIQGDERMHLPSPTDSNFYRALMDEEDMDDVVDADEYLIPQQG

Experimental: 5 μL of EGFR enzyme form in assay buffer (50 mM HEPES pH 7.3, 10 mM MgCl2, 1 mM EGTA, 0.01% Tween 20, 2 mM DTT) are dispensed into columns 1-23, than 5 μL of ATP and ULight-poly-GT substrate (PerkinElmer; TRF0100-M) mix in assay buffer is added to all wells (final assay concentration of the ULight-poly-GT substrate 200 nM). Each of the different EGFR enzyme form assays is available at high ATP levels (final assay concentration 100 μM). After 90 minutes incubation at room temperature 5 μL EDTA (final assay concentration 50 mM) and LANCE Eu-anti-P-Tyr (PT66) antibody (PerkinElmer, AD0069) (final assay concentration 6 nM) mix are added to stop the reaction and start the binding of the antibody. […] Each plate contains 16 wells of a negative control (diluted DMSO instead of test compound; w EGFR enzyme form; column 23) and 16 wells of a positive control (diluted DMSO instead of test compound; w/o EGFR enzyme form; column 24). Negative and positive control values are used for normalization and IC50 values are calculated and analysed using a 4 parametric logistic model.

The term IC50 denotes the concentration that gives 50% inhibition. A high value points to weaker potency. In the case of `COc1ccncc1-c1cc(C(=O)/N=c2\[nH]c3cc(C4CCN(C(C)=O)CC4)ccc3n2CC(C)(C)O)ccn1` [US11174245, # I-031], 3 nM corresponded to half-maximal inhibition (IC50). This lies in the single-digit nanomolar range.
